Patent publication US20240217990A1 (Gilead Sciences, Inc., priority 2021, published 2024)
pEC50: −log10 of the molar value.

Key:
[1] = target: T1, TLR8 (Homo sapiens, UniProt Q9NR97); assay: TLR8 human PBMC cell-based assay (antagonist, Compound A stimulated cytokine release); details: human PBMCs; TLR8 agonist Compound A 800 nM, 6 hours; cytokines (TNFa and IL 12p40) in supernatant; read-out: TLR-8 EC50
T1 construct: Human peripheral blood mononuclear cells (PBMCs) consist of lymphocytes, monocytes and dendritic cells that express TLR7, TLR8 and TLR9; endogenous in cells; host or cells: cryopreserved human PBMCs from healthy donors
T1 sequence (Q9NR97 27-1041): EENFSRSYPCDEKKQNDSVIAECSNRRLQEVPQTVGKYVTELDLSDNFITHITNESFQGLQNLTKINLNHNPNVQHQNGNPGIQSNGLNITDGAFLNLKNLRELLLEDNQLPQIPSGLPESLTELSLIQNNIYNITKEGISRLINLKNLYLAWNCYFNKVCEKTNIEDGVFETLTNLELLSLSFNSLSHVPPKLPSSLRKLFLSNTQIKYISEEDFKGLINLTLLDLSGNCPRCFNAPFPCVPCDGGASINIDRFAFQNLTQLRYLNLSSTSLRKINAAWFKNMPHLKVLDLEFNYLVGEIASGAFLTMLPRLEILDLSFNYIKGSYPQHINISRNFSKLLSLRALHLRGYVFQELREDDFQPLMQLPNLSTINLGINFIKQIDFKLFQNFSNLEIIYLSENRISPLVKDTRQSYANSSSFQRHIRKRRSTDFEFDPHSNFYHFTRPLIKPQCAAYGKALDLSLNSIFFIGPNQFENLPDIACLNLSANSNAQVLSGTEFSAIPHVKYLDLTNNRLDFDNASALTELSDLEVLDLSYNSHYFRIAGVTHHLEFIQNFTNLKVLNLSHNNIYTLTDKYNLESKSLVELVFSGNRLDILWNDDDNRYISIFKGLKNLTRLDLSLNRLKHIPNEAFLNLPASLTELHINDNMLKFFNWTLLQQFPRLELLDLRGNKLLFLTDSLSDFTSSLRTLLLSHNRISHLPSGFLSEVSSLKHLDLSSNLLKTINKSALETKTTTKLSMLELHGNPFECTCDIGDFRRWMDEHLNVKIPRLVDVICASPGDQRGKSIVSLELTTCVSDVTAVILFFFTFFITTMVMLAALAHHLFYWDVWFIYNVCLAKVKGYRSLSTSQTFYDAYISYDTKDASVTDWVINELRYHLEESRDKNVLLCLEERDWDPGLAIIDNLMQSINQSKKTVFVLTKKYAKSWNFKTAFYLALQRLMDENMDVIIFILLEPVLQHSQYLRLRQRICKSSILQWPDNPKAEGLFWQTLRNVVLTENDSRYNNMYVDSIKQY
Procedure, shortened: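 Cryopreserved donor PBMCs (100,000/well, RPMI + 10% FBS) were preincubated 1 h with antagonist (10-point dose response, quadruplicate), then stimulated with Compound A (800 nM final) for 6 h at 37 °C. TNFa and IL-12p40 in supernatants were measured by electrochemiluminescence; sigmoidal fits gave EC50.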

[2] = target: T2, TLR7 (Homo sapiens, UniProt Q9NYK1); assay: TLR7 human PBMC cell-based assay (antagonist, GS-986 stimulated cytokine release); details: human PBMCs; TLR7 agonist GS-986 400 nM, 6 hours; cytokines (IL-6 and IFNα) in supernatant; read-out: TLR-7 EC50
T2 construct: Human peripheral blood mononuclear cells (PBMCs) consist of lymphocytes, monocytes and dendritic cells that express TLR7, TLR8 and TLR9; endogenous in cells; host or cells: cryopreserved human PBMCs from healthy donors
T2 sequence (Q9NYK1 27-1049): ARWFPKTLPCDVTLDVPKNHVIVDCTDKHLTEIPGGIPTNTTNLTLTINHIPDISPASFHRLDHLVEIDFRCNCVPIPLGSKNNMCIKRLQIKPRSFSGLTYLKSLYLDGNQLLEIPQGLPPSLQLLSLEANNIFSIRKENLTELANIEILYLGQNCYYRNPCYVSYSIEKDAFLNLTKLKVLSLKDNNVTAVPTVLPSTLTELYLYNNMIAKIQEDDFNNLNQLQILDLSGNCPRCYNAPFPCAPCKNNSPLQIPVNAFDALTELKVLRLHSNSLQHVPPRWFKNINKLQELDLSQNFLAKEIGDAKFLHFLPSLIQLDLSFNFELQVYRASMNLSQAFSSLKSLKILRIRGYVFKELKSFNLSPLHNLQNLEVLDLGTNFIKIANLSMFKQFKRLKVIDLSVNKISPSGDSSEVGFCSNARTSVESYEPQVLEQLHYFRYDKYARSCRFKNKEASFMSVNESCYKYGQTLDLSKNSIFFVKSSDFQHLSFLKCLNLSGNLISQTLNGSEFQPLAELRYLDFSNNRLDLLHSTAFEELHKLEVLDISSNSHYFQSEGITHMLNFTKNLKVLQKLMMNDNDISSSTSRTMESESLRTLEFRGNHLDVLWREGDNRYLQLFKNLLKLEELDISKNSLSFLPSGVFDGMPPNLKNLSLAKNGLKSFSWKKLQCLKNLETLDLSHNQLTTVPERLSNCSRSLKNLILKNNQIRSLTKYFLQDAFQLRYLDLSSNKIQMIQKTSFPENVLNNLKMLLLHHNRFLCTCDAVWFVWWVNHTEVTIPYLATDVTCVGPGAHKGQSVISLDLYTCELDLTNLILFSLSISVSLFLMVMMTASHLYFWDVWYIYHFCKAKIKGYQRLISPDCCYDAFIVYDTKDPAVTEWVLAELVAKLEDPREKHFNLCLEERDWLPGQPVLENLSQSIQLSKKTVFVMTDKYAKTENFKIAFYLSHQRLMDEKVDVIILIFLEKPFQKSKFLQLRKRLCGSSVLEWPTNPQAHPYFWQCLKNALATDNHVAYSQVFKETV
Procedure, shortened: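 Cryopreserved healthy-donor PBMCs (100,000/well, RPMI-1640 + 10% FBS) pre-incubated 1 h at 37 °C with antagonist (10-point dose response, quadruplicate), then stimulated 6 h with GS-986 at 400 nM final. Supernatant IL-6 and IFNα measured by electrochemiluminescence immunoassay; EC50 from sigmoidal fit.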

| Structure (SMILES) | pEC50 [1] | pEC50 [2] |
| --- | --- | --- |
| Cc1c(-c2[nH]c3cc(C(=O)N(C)[C@@H]4CNC[C@H](C(F)(F)F)C4)sc3c2C(C)C)cn2ncnc2c1C [Example 273, 5-(7,8-dimethyl-[1,2,4]triazolo[1,5-a]pyridin-6-yl)-6-isopropyl-N-methyl-N-((3S,5R)-5-(trifluoromethyl)piperidin-3-yl)-4H-thieno[3,2-b]pyrrole-2-carboxamide] | 8.01 | 8.01 |
| CCN1C[C@@H](N(C)C(=O)c2cc3[nH]c(-c4cn5ncnc5c(C)c4C)c(C(C)C)c3s2)C[C@@H](C(F)(F)F)C1 [Example 274, 5-(7,8-dimethyl-[1,2,4]triazolo[1,5-a]pyridin-6-yl)-N-((3S,5R)-1-ethyl-5-(trifluoromethyl)piperidin-3-yl)-6-isopropyl-N-methyl-4H-thieno[3,2-b]pyrrole-2-carboxamide] | 7.15 | 6.44 |
| Cc1cc(-c2[nH]c3cc(C(=O)N(C)[C@H]4CNC[C@@H](C(F)(F)F)C4)sc3c2C(C)C)cn2ncnc12 [Example 275] | 7.45 | 8.05 |
| Cc1cc(-c2[nH]c3cc(C(=O)N(C)[C@@H]4CNC[C@H](C(F)(F)F)C4)sc3c2C(C)C)cn2ncnc12 [Example 276] | 7.79 | 8.57 |
| Cc1cc(-c2[nH]c3cc(C(=O)C4CCNCC4)sc3c2C(C)C)cn2ncnc12 [Example 277, (6-isopropyl-5-(8-methyl-[1,2,4]triazolo[1,5-a]pyridin-6-yl)-4H-thieno[3,2-b]pyrrol-2-yl)(piperidin-4-yl)methanone] | 8.21 | 9.40 |
| Cc1c(-c2[nH]c3cc(C4CCN(CC(N)=O)CC4)sc3c2C(C)C)cn2ncnc2c1C [Example 279] | 9.11 | 8.56 |
| Cc1cc(-c2[nH]c3cc(C4CCC5(CCN(CC(N)=O)C5)C4)sc3c2C(C)C)cn2ncnc12 (stereo not drawn) [Example 280] | 8.12 | 8.54 |
| Cc1cc(-c2[nH]c3cc(C4CCC5CNCCC5C4)sc3c2C(C)C)cn2ncnc12 (stereo not drawn) [Example 281] | 8.35 | 9.06 |
| Cc1cc(-c2[nH]c3cc(C4CC5CCC4CN5)sc3c2C(C)C)cn2ncnc12 (stereo not drawn) [Example 282] | 7.93 | 8.88 |
| Cc1nc2c(C)cc(-c3[nH]c4cc(C5CCN(CC(N)=O)CC5)sc4c3C(C)C)cn2n1 [Example 283] | 8.46 | 8.86 |
| Cc1cc(-c2[nH]c3cc(C4CCC5(CC4)CN(C(=O)[C@H]4COCCN4)C5)sc3c2C(C)C)cn2ncnc12 [Example 284] | 7.85 | 9.64 |
| Cc1cc(-c2[nH]c3cc(C4CCC5(CC4)CN(C(=O)[C@@H]4COCCN4)C5)sc3c2C(C)C)cn2ncnc12 [Example 285] | 7.82 | 9.47 |
| Cc1c(-c2[nH]c3cc(C4CCN(CC(N)=O)CC4)sc3c2C(C)C)ccc2nn(C)c(=O)n12 [Example 286] | 6.76 | < 6.00 |
| Cc1cc(-c2[nH]c3cc(C4CCC5CN(CC(N)=O)CCC5C4)sc3c2C(C)C)cn2ncnc12 (stereo not drawn) [Example 287] | 8.27 | 9.25 |
| Cc1cc(-c2[nH]c3cc(C4CC5CCC4CN5CC(N)=O)sc3c2C(C)C)cn2ncnc12 (stereo not drawn) [Example 288] | 8.19 | 9.12 |
| Cc1cc(-c2[nH]c3cc(C4CC5CN(CC(N)=O)CC5C4)sc3c2C(C)C)cn2ncnc12 (stereo not drawn) [Example 289] | 8.23 | 9.72 |
| Cc1cc(-c2[nH]c3cc(C4CCC5(CC4)CCN(CC(N)=O)CC5)sc3c2C(C)C)cn2ncnc12 [Example 290] | 7.75 | 9.37 |
| Cc1cc(-c2[nH]c3cc(C4CCN(C(=O)[C@@H]5COCCN5)CC4)sc3c2C(C)C)cn2ncnc12 [Example 291] | 8.21 | 9.43 |
| Cc1cc(-c2[nH]c3cc(C4CCN(C(=O)[C@H]5COCCN5)CC4)sc3c2C(C)C)cn2ncnc12 [Example 292] | 8.10 | 9.52 |
| Cc1cc(-c2[nH]c3cc(C4CCNCC4(C)C)sc3c2C(C)C)cn2ncnc12 (stereo not drawn) [Example 293] | 8.25 | 9.09 |

The remaining lines, values ahead:

| pEC50 [1] | pEC50 [2] | Structure (SMILES) |
| --- | --- | --- |
| 7.71 | 7.31 | Cc1cc(-c2[nH]c3cc(C4CC(C)(C)NC(C)(C)C4)sc3c2C(C)C)cn2ncnc12 [Example 294] |
| 8.09 | 8.42 | Cc1cc(-c2[nH]c3cc(C4CCNC5(CCC5)C4)sc3c2C(C)C)cn2ncnc12 (stereo not drawn) [Example 296] |
| 7.71 | 8.56 | Cc1cc(-c2[nH]c3cc(C4CC5CCCC(C4)N5)sc3c2C(C)C)cn2ncnc12 (stereo not drawn) [Example 297] |
| 7.75 | 8.40 | Cc1cc(-c2[nH]c3cc(C4CCN(CC(N)=O)CC4(C)C)sc3c2C(C)C)cn2ncnc12 (stereo not drawn) [Example 298] |
| 7.98 | 9.25 | Cc1cc(-c2[nH]c3cc(C4CC5CCC(C4)N5CC(N)=O)sc3c2C(C)C)cn2ncnc12 (stereo not drawn) [Example 299] |
| 7.95 | 9.51 | Cc1cc(-c2[nH]c3cc(C4CCC(C(=O)N5CCNCC5)CC4)sc3c2C(C)C)cn2ncnc12 (stereo not drawn) [Example 300] |
| 6.66 | 7.28 | Cc1cc(-c2[nH]c3cc(C4CCN(CC(N)=O)C5(CCC5)C4)sc3c2C(C)C)cn2ncnc12 (stereo not drawn) [Example 301] |
| 7.27 | 7.92 | Cc1cc(-c2[nH]c3cc(C4CC5CCCC(C4)N5CC(N)=O)sc3c2C(C)C)cn2ncnc12 (stereo not drawn) [Example 302] |
| 8.45 | 9.36 | Cc1cc(-c2[nH]c3cc(C4CC4C(=O)N4CCNCC4)sc3c2C(C)C)cn2ncnc12 (stereo not drawn) [Example 303] |
| 8.69 | 9.30 | Cc1cc(-c2[nH]c3cc(C4CC5(CCN(CC(N)=O)CC5)C4)sc3c2C(C)C)cn2ncnc12 [Example 304] |
| 8.29 | 8.63 | CC(C)c1c(-c2cc(C(F)(F)F)c3ncnn3c2)[nH]c2cc(C(=O)N3CCNCC3)sc12 [Example 305] |
| 7.60 | 7.64 | Cc1cc(-c2[nH]c3cc(C4CC4C(=O)N4CCN(CCO)CC4)sc3c2C(C)C)cn2ncnc12 (stereo not drawn) [Example 306] |
| 8.13 | 10.05 | Cc1cc(-c2[nH]c3cc([C@@H]4C[C@H]5CC[C@@H](C4)N5)sc3c2C(C)C)cn2ncnc12 [Example 307, 2-((1R,3s,5S)-8-azabicyclo[3.2.1]octan-3-yl)-6-isopropyl-5-(8-methyl-[1,2,4]triazolo[1,5-a]pyridin-6-yl)-4H-thieno[3,2-b]pyrrole] |
